The values that follow come from patent publication US6962920B2, “Pyrimidine derivatives and methods of making and using these derivatives” (Duquesne University of the Holy Ghost, priority 1992, dated 2005).

The structures appear in SMILES notation. Like-named read-outs stand apart in the source and are kept apart here.

One experiment concerns NCI/ADR-RES. As to the kind of experiment: NCI in vitro anti-cancer activity, breast cancer. To be noted: Table 29, Breast Cancer, NCI/ADRRES.
For a further experiment, the system named is MDA-MB-231/ATCC. As to the kind of experiment: NCI in vitro anti-cancer activity, Breast Cancer. The class given is cell-based.
Another experiment has as its system UACC-62. As to the kind of experiment: NCI in vitro anti-cancer activity, Melanoma. The class given is cell-based.
A further experiment has as its system PC-3. As to the kind of experiment: NCI in vitro anti-cancer activity, Prostate Cancer. It counts as cell-based.
Another experiment has as its system MOLT-4. Briefly: NCI in vitro anti-cancer activity, Leukemia. It counts as cell-based. To be noted: Table 29, Leukemia.
The subject of another experiment is IGROV1. Briefly: NCI in vitro anti-cancer activity, Ovarian Cancer. It counts as cell-based.
Another experiment concerns KM12. As to the kind of experiment: NCI in vitro anti-cancer activity, Colon Cancer. It counts as cell-based.
For a further experiment, the system named is LOX IMVI. As to the kind of experiment: NCI in vitro anti-cancer activity, Melanoma. It counts as cell-based.
The test system of a further experiment is CCRF-CEM. As to the kind of experiment: NCI in vitro anti-cancer activity, Leukemia. To be noted: Table 29, Leukemia. It counts as cell-based.
A further experiment relates to UACC-257. As to the kind of experiment: NCI in vitro anti-cancer activity, Melanoma. To be noted: Table 29, Melanoma. The class given is cell-based.
The next experiment deals with NCI-H226. It counts as cell-based.
The subject of the next experiment is HT29. Briefly: NCI in vitro anti-cancer activity, Colon Cancer. The class given is cell-based.
The subject of a further experiment is SR. Briefly: NCI in vitro anti-cancer activity, Leukemia. The class given is cell-based.
Another experiment has as its system NCI-H23. It counts as cell-based.
For a further experiment, the system named is K-562. Briefly: NCI in vitro anti-cancer activity. To be noted: Table 29, Leukemia.
The test system of another experiment is HCT-116. Briefly: NCI in vitro anti-cancer activity, Colon Cancer. The class given is cell-based.
Another experiment deals with SK-MEL-5. Briefly: NCI in vitro anti-cancer activity, Melanoma. It counts as cell-based. To be noted: Table 29, Melanoma.
A further experiment relates to 786-0. As to the kind of experiment: NCI in vitro anti-cancer activity, Renal Cancer. The class given is cell-based.
In a further experiment the test system is A549/ATCC. It counts as cell-based.
The target in a further experiment is T1, Pc DHFR (Pneumocystis carinii, UniProt P16184).
T1 sequence (P16184 1-206): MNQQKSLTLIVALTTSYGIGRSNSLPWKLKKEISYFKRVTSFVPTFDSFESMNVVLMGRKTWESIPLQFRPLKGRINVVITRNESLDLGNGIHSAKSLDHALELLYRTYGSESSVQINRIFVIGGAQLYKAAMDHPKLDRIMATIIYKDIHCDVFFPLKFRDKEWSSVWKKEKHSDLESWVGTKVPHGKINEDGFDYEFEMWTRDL
Briefly: biochemical.

The test system of the next experiment is A498. Briefly: NCI in vitro anti-cancer activity, renal cancer.
In another experiment the target is T2, Tg DHFR (Toxoplasma gondii, UniProt Q07422).
T2 sequence (Q07422 1-610): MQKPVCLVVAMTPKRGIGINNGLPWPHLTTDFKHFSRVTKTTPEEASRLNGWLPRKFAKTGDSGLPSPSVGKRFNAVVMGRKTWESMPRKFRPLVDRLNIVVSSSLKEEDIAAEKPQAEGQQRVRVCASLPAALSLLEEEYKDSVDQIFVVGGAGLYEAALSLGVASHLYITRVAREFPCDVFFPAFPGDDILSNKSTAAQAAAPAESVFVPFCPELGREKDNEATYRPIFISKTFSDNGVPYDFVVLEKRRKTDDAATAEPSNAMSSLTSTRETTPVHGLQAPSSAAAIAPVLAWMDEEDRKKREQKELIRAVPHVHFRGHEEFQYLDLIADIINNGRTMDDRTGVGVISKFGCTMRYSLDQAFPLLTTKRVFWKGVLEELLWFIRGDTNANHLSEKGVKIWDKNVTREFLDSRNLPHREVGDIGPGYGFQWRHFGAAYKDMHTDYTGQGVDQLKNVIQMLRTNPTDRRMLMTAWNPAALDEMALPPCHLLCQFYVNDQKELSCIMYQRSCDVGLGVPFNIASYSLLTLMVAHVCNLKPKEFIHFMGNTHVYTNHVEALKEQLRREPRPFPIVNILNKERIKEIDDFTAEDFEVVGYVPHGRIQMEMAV
Briefly: biochemical. It counts as biochemical. As for the experimental part: The selectivity ratio is a measure of the selectivity of a compound for Pc DHFR or Tg DHFR and is expressed as the IC50 value of the DHFR from rate liver (RL) divided by the IC50 value of either the Pc DHFR or the Tg DHFR, depending on which organism the compounds are being tested against. For example, the selectivity ratio of a compound is calculated by the following formula: [formula]

In the next experiment the test system is RPMI-8226. Briefly: NCI in vitro anti-cancer activity, Leukemia. It counts as cell-based. The conditions noted are these: Table 29, Leukemia.
Where [1] appears, read: Table 29, Prostate Cancer, PC-3.
[2] abbreviates: Table 29, Ovarian Cancer, IGROV1.
Where [3] appears, read: Table 29, Non-Small Cell Lung Cancer, NCI-H226.
The mark [4] stands for this setting: Table 29, Non-Small Cell Lung Cancer, NCI-H23.
Setting [5] is: Table 29, Non-Small Cell Lung Cancer.

From the text for A498: (§1) The compounds identified below were further tested for their in vitro anti-cancer activity by the National Cancer Institute.
From the text for K-562: as §1
From the text for NCI/ADR-RES: as §1

Usually GI50 stands for the concentration giving 50% growth inhibition. Low readings indicate more potent growth inhibition, high ones less potent growth inhibition. In the case of `COc1ccccc1CCc1cn(Cc2ccccc2)c2nc(N)nc(C)c12` [Compound 113-148], the GI50 stood at 6.75 µM with NCI/ADR-RES; 10.8 µM in the experiment with MDA-MB-231/ATCC (Table 29, Breast Cancer); 12.3 µM in the experiment with UACC-62 (Table 29, Melanoma, UACC-62); 9.47 µM in the experiment on PC-3 (setting [1]); 7.46 µM in the experiment with MOLT-4; 14.2 µM in the experiment with IGROV1 (setting [2]). For the same compound, the 50% growth inhibitory concentration (GI50) in the experiment with KM12 (Table 29, Colon Cancer, KM12) was found to be 12.2 µM; in the experiment on LOX IMVI (Table 29, Melanoma) it was 13.7 µM; in the experiment with CCRF-CEM, 2.97 µM; in the experiment with UACC-257, 6.36 µM; with NCI-H226 (setting [3]), 12.4 µM; in the experiment on HT29 (Table 29, Colon Cancer, HT29) it was 4.77 µM. Besides, the GI50 was 3.51 µM with SR (Table 29, Leukemia); 8.47 µM in the experiment with NCI-H23 (setting [4]); 5.91 µM in the experiment with K-562; 4.51 µM with HCT-116 (Table 29, Colon Cancer); 5.8 µM with SK-MEL-5; 11.6 µM in the experiment on 786-0 (Table 29, Renal Cancer, 786-0). Besides, the GI50 with A549/ATCC (setting [5]) stood at 6.46 µM; with A498 (Table 29, Renal Cancer, A498) it was 1.94 µM. Further, the “% inhibition Pc DHFR” value at Pc DHFR (@ 85 μM) came out at 45% @. In addition, on Tg DHFR (@ 85 μM), the “% inhibition Tg DHFR” value came out at 27% @ 85 μM.

For `Nc1nc(N)c2c(CNc3ccc(C(=O)N[C@@H](CCC(=O)O)C(=O)O)cc3)c[nH]c2n1` [Compound 9], the concentration for 50% growth inhibition (GI50) with MDA-MB-231/ATCC (Homo sapiens, Breast Cancer) was more than 100 µM; in the experiment with UACC-62 (Homo sapiens, UACC-62, Melanoma), less than 0.01 µM; in the experiment on PC-3 (Homo sapiens, PC-3, Prostate Cancer), more than 100 µM; in the experiment with IGROV1 (Homo sapiens, IGROV-1, IGROV1, Ovarian Cancer), less than 0.01 µM; with KM12 (Homo sapiens, KM12, Colon Cancer), 33.2 µM; in the experiment with LOX IMVI (Homo sapiens, Melanoma) it was less than 0.01 µM. Besides, the 50% growth inhibitory concentration (GI50) with NCI-H226 (Homo sapiens, NCI-H226, Non-Small Cell Lung Cancer) is more than 100 µM; with HT29 (Homo sapiens, HT-29, HT29, Colon Cancer), less than 0.01 µM; in the experiment on SR (Homo sapiens, Leukemia) it was more than 100 µM; in the experiment on NCI-H23 (Homo sapiens, NCI-H23, Non-Small Cell Lung Cancer) it was 0.0575 µM; with HCT-116 (Homo sapiens), less than 0.01 µM; with 786-0 (Homo sapiens, 786-0, Renal Cancer), less than 0.01 µM. Moreover, the GI50 in the experiment with A549/ATCC (Homo sapiens, Non-Small Cell Lung Cancer) is less than 0.01 µM. Besides, the IC50 was 0.038 µM at Pc DHFR and 0.21 µM at Tg DHFR.

For `COc1cc(CCc2c[nH]c3nc(N)nc(C)c23)cc(OC)c1OC` [Compound 113-154A], the concentration for 50% growth inhibition (GI50) with NCI/ADR-RES was determined as 25.9 µM; in the experiment with MDA-MB-231/ATCC (Table 29, Breast Cancer) it was 37.3 µM; in the experiment on UACC-62 (Table 29, Melanoma, UACC-62), 19.6 µM; with PC-3 (setting [1]), 22.2 µM; with MOLT-4, 38.7 µM; with IGROV1 (setting [2]), 17.3 µM. Moreover, the GI50 in the experiment on KM12 (Table 29, Colon Cancer, KM12) was 46.5 µM; in the experiment with LOX IMVI (Table 29, Melanoma) it was 30 µM; with UACC-257, 56.4 µM; with NCI-H226 (setting [3]), 23 µM; with HT29 (Table 29, Colon Cancer, HT29), 10 µM; in the experiment with SR (Table 29, Leukemia), 32.5 µM. The GI50 in the experiment with NCI-H23 (setting [4]) came out at 26.9 µM; with K-562, 23 µM; in the experiment with HCT-116 (Table 29, Colon Cancer), 36.8 µM; in the experiment with SK-MEL-5 it was 37.3 µM; in the experiment with 786-0 (Table 29, Renal Cancer, 786-0), 32.8 µM; in the experiment with RPMI-8226, 67.4 µM. Further, the concentration for 50% growth inhibition (GI50) in the experiment on A549/ATCC (setting [5]) was 26.1 µM; with A498 (A498 renal cancer cell line), “selective”; with A498 (Table 29, Renal Cancer, A498), 0.845 µM. Besides, the “Selectivity Ratio: RL DHFR/Pc DHFR” value at Pc DHFR (Table 26) came out at 0.04. The IC50 at Pc DHFR (Table 26, read-out: Inhibitory Concentrations (IC50) Pc DHFR) is 55 µM; at Tg DHFR (Table 26, read-out: Inhibitory Concentrations (IC50) Tg DHFR), 10.2 µM. Also, the “Selectivity Ratio: RL DHFR/Tg” value at Tg DHFR (Table 26) came to 0.23.

Consider `COc1ccc(CCc2cn(Cc3ccccc3)c3nc(N)nc(C)c23)cc1` [Compound 113-118], for which the GI50 in the experiment with MDA-MB-231/ATCC (Table 29, Breast Cancer) is less than 100 µM; in the experiment on UACC-62 (Table 29, Melanoma, UACC-62), 80 µM; with PC-3 (setting [1]), 64 µM; in the experiment with IGROV1 (setting [2]) it was 68.2 µM; with KM12 (Table 29, Colon Cancer, KM12), 48.4 µM; in the experiment on LOX IMVI (Table 29, Melanoma), 50 µM. Besides, the 50% growth inhibitory concentration (GI50) is more than 100 µM in the experiment with CCRF-CEM; more than 100 µM in the experiment on NCI-H226 (setting [3]); 48.4 µM with HT29 (Table 29, Colon Cancer, HT29); 97.3 µM in the experiment on NCI-H23 (setting [4]); 48.3 µM in the experiment on HCT-116 (Table 29, Colon Cancer); more than 100 µM in the experiment on 786-0 (Table 29, Renal Cancer, 786-0). Moreover, the 50% growth inhibitory concentration (GI50) was more than 100 µM with RPMI-8226; 99.8 µM with A549/ATCC (setting [5]); 14.2 µM with A498 (Table 29, Renal Cancer, A498). The “% inhibition Pc DHFR” value on Pc DHFR (@ 31 μM) turned out to be 60% @. For the same compound, on Tg DHFR (@ 31 μM), the “% inhibition Tg DHFR” value came out at 15% @ 31 μM.
